# From patent US20250387356A1 (SpringWorks Therapeutics, Inc., priority 2024, published 2025)
# Columns and labels:
# [1] = Mirdametinib pharmacokinetic parameters (Table A): exposure, absorption, food effect, distribution, elimination; assay type: in vivo; conditions: human, plasma, oral
# [2] = system: NF1-associated plexiform neurofibromas (PNs); experiment: Phase 2b trial of mirdametinib in adult and pediatric patients: confirmed objective response by BICR volumetric MRI per REiNS criteria; assay type: in vivo, human
# Description: Study treatment was administered orally at a twice daily (BID) dose specified in the table below. Dosing was on a 28-day Cycle (4-week course) with a 3 week on/1 week off schedule. The treatment period will last for up to 24 Cycles followed by a 30-day Safety Follow-Up period.
# A partial response was defined as PN decrease ≥20% compared to baseline using centrally read MRI volumetric analysis.
# The major efficacy outcome measure was confirmed objective response rate (ORR), defined as the percentage of patients with complete response (disappearance of the target PN) or confirmed partial response ([…]). Responses were assessed by blinded independent central review (BICR) using volumetric magnetic resonance imaging (MRI) analysis per Response Evaluation in Neurofibromatosis and Schwannomatosis (REiNS) criteria. A secondary efficacy objective was to determine the duration of response for patients who achieved a confirmed objective response.
compound,measurement,setting,value
"O=C(NOC[C@H](O)CO)c1ccc(F)c(F)c1Nc1ccc(I)cc1F (single isomer, unassigned) [mirdametinib]",clearance,[1]; read-out: Apparent systemic clearance [Mean (% CV)] (converted),106 mL/min
same,Vd,[1]; read-out: Apparent volume of distribution [Mean (% CV)],255 L
same,half-life,[1]; read-out: Terminal elimination half-life [Mean (% CV)] (converted),28 h
same,"ORR, also considering patients who achieved a confirmed objective response after cycle 24",[2]; adults,45%
same,"ORR, also considering patients who achieved a confirmed objective response after cycle 24",[2]; pediatric patients,54%
